Assay results from patent US20050249714A1, “Method of using secretin and compositions made therefrom for the treatment of autism and other neurological, behavioral and immunological disorders” (Repligen Corporation, a Massachusetts corporation, priority 1997, published 2005).
No end group written: not given here.

Legend:
abnormal opioid peptides = conditions: autistic children responding to casein free and gluten free diet, after the secretin infusion; cited from earlier work
[1] = test system: patient, a child with symptoms of autism; assay: Daily transdermal secretin with DMSO in the same patient (Example 2); type: in vivo, human; conditions: about 15 CU daily
Method: At the time of this treatment, the patient was […]. Secretin was administered transdermally using pharmaceutical grade dimethyl sulfoxide (DMSO) (generally 99.9% pure) available from Clinic Service Co., Box 2512, Hemet Calif. 92543. The secretin (Secretin-Ferring) was administered daily in a dosage of about 75 CU over a five day period (i.e., about 15 CU daily) For each treatment, about 4 drops of DMSO were placed onto the skin of the patient, about 15 CU of the crystalline secretin was placed onto the DMSO, and the composition was rubbed into the skin.

[2] = test system: patient, a child with symptoms of autism; assay: Intravenous secretin infusion in a child with symptoms of autism (Example 1); type: in vivo, human
Method: The present invention will be better understood from the following examples which are given by way of illustration and not by way of limitation. The patient, the same in both examples, is a child with symptoms of autism.
When the patient was […], the secretin was administered by way of an infusion as part of an upper gastrointestinal endoscopy. The secretin was used in this diagnostic procedure at the request of the patient's parents, one of which is an inventor of the present invention. The secretin used in this procedure is known as Secretin-Ferring available from Ferring Laboratories, Inc., Suffern, N.Y. (See Appendix A). The secretin was dissolved in a […] solution of sodium chloride and administered in a dosage of 2 clinical units (CU) per kilogram (kg) body weight by intravenous injection over one minute. (I.E. 30 IU IV for approximately 15 kilograms of body weight.)
The diagnostic tests performed on the patient during this procedure also indicated gastric inflammation. […] The following Table I summarizes the improvements observed in the patient within 3 weeks after the infusion of secretin.
Biomedical changes were also measured in the patient.
At the request of the patient's parents, a second infusion of secretin was performed about 9 months after the first infusion, and a third infusion of secretin was performed about three months after the second infusion.

**Q.** With “secretin (HSDGTFTSELSRLRDSARLQRLLQGLV-NH2; ends and bridges not checked; UniProt P63298 33-59, looked up) [polypeptide hormone secreted by the mucosa of the duodenum and upper jejunum; used as Secretin-Ferring from Ferring Laboratories]” as the substance, how does the abnormal opioid peptides (abnormal opioid peptides) read?
**A.** the peptides disappeared

**Q.** What about the overall improvements [1] of the same substance?
**A.** even more dramatic and significant improvements

**Q.** And the “time at which the rate of the patient's progress appeared to decrease” value ([2]; after the first infusion)?
**A.** about 5 weeks

**Q.** What about the “perfusion of the right posterior parietal and right temporal lobes (SPECT scan)” value ([2]; after the treatment) of the same substance?
**A.** improved

**Q.** And the “results of second and third infusions” value ([2]; second infusion about 9 months after the first, third about three months after the second)?
**A.** achieved the same results

**Q.** And the imitation of commands ([2]; within 3 weeks after infusion, before: did not imitate)?
**A.** Will imitate almost any multi-step command.

**Q.** And the diet preferences ([2]; within 3 weeks after infusion, before: limited diet preferences)?
**A.** No Change

**Q.** And the “connections made between language and objects” value ([2]; within 3 weeks after infusion, before: no apparent connections)?
**A.** Many connections made between new language

**Q.** What about the interaction with videos ([2]; within 3 weeks after infusion, before: watch videos) of the same substance?
**A.** Now, gets “involved” interactively with their videos.

**Q.** What about the “chronic abnormal bowel movements” value ([2]; within days after the administration, no change in diet) of the same substance?
**A.** became normal
